Source: publication PMC8036666, “Biological and Physico-Chemical Characteristics of Arginine-Rich Peptide Gemini Surfactants with Lysine and Cystine Spacers” (International Journal of Molecular Sciences, 2021)
≈ marks a conversion by molar mass, not a printed value. Where a SMILES comes first, the peptide text is derived from it. Bridges are numbered along the chain shown (N, C = ends). Roman numbers before positions name the chains, in order. Side-chain parts run from the residue outwards. The star is where a group is joined. Myristoyl = CCCCCCCCCCCCCC(=O)*; Lauroyl = CCCCCCCCCCCC(=O)*; Octanoyl = CCCCCCCC(=O)*

Legend:
[1] = system: Pseudomonas aeruginosa ATCC 9027; details: ATCC 9027, 24 h
Protocol: (§1) The Acinetobacter baumannii ATCC BAA-1605, Enterococcus faecium ATCC 700221, Escherichia coli ML-35 ATCC 43827, Klebsiella aerogenes ATCC 13048, Klebsiella pneumoniae ATCC 700603, Pseudomonas aeruginosa ATCC 9027, Staphylococcus aureus ATCC 25923, Staphylococcus aureus ATCC 33591, Candida albicans ATCC 10231, Candida glabrata ATCC 15126, strains were acquired from the American Type Culture Collection (ATCC). All the strains were stored at −80 °C in Roti-Store cryo vials and before the tests were transferred into fresh Mueller–Hinton broth (MHB, Biocorp, Warsaw, Poland) for bacteria or RPMI-1640 (Sigma-Aldrich, Steinheim, Germany) for fungi and incubated for 24 h at 37 °C. Then, the cultures were seeded on the Mueller–Hinton agar (BioMaxima, Lublin, Poland) or Sabouraud dextrose agar (SDA, BioMaxima, Lublin, Poland) plates, respectively, and incubated as just mentioned. These agar cultures were used for further microbiological assays. Cell densities for all assays were adjusted spectrophotometrically (Multiskan GO Microplate Spectrophotometer, Thermo Fisher Scientific, Vantaa, Finland) at 600 and 530 nm for bacteria and fungi, respectively.
(§2) The MICs were determined by the broth microdilution method according to the Clinical and Laboratory Standard Institute guidelines. […] The experiments were conducted on 96-well microtiter polystyrene plates (Kartell, Noviglio, Italy). The growth was assessed visually after incubation, and the MIC was assumed as the lowest peptide concentration at which a noticeable growth of microorganisms was inhibited. All experiments were conducted in triplicate.

[2] = system: Acinetobacter baumannii ATCC BAA 1605; details: ATCC BAA 1605, 24 h
Protocol: as §1, §2

[3] = system: Klebsiella aerogenes ATCC 13048; details: ATCC 13048, 24 h
Protocol: as §1, §2

[4] = system: Enterococcus faecium ATCC 700221; details: ATCC 700221, 24 h
Protocol: as §1, §2

[5] = system: Staphylococcus aureus ATCC 25923; details: ATCC 25923, 24 h
Protocol: as §1, §2

[6] = system: Klebsiella pneumoniae ATCC 700603; details: ATCC 700603, 24 h
Protocol: as §1, §2

[7] = Lipopeptide hydrophobicity by RP-HPLC (adjusted retention time); assay type: physicochemical; details: for Adjusted Retention Time: RP-HPLC, 20–65% acetonitrile over 30 min, indicator of hydrophobicity; for Difference in retention time calculated as tR’C—tR’B: between corresponding surfactants of series C and B
Protocol: The identity of the purified peptides was confirmed with electrospray ionization mass spectrometry (ESI-MS) in positive ion mode. Results of MS analyses and net charge are attached in Supplementary Materials (Table S1). Peptides’ hydrophobicity was evaluated by analytical reversed-phase high-performance liquid chromatography (RP-HPLC). The critical aggregation concentrations (CACs) of the lipopeptides were determined in unbuffered aqueous solution at 298 K by measuring the surface tension as a function of lipopeptide concentration. The measurements were carried out by the Du Noüy ring method on a K100 tensiometer. The surface tension data were plotted against the logarithm of lipopeptide concentration. CAC was found as the intersection of two lines being linear regression of data below and above CAC.
Lipopeptide hydrophobicity was determined as described previously. To do this, a Waters Alliance e2695 system with a Waters 2998 PDA Detector (software-Empower 3, Waters, Milford, MA, USA) was used. All analyses were carried out on a Waters X-Bridge Shield RP-18 column (3.0 × 100 mm, 3.5 μm particle size, 130 Å pore size). The Shield Technology column with embedded polar groups was used to minimize interactions of unreacted silanol groups with basic lipopeptides. The peptides were dissolved in water (0.1% TFA, v/v) up to a concentration of 1 mg/mL. UV detection at 214 nm was used, and samples (10 μL) were eluted with a linear 20–65% acetonitrile gradient in deionized water over 30 min at 25.0 ± 0.1 °C. The mobile phase flow rate was 0.5 mL/min. Both eluents contained 0.1% (v/v) of TFA. Each peptide sample was analyzed in triplicate. The maximum standard deviation and coefficient of variation were 0.044 and 0.85%, respectively.

[8] = system: Acinetobacter baumannii ATCC BAA 1605; assay type: cell-based; details: ATCC BAA 1605, 24 h
Protocol: (§3) Biofilm is associated with life-threating infections due to its outstanding resistance to antibiotics. In this study, the antibiofilm characteristics of USCLs and gemini surfactants were evaluated.
(§4) The MBECs were determined as described previously using 96-well polystyrene flat-bottom plates. For this purpose, 24 h cultures of microorganisms were diluted to obtain a final density of 5.0 × 10^5 CFU/mL and 2.0 × 10^5 CFU/mL of bacteria and fungi, respectively. Microorganisms were diluted in MHB or RPMI-1640 with 2% D-glucose (bacteria and fungi, respectively). Briefly, 100 µL of cell suspension was added into the test plates. After 24 h of incubation at 37 °C, the wells were rinsed three times with a PBS (pH 7.4) to remove non-adherent cells. Subsequently, 100 μL of the test compounds in a concentration range (1–512 μg/mL) were added to each well. After 24 h of incubation at 37 °C, 20 μL of a cell viability reagent was added (resazurin, 4 g/L; Sigma Aldrich, St. Louis, MO, USA). The MBEC was read after 1 h. The determined values were recorded as the lowest concentration at which the reduction of resazurin (from blue to pink) was lower or equal to 10 ± 0.5% as compared to the positive (100%) and negative (0%) controls. The reduction was monitored by measuring absorbance at 570 nm (reduced) and 600 nm (oxidized) using a microplate spectrophotometer (Multiskan GO Microplate Spectrophotometer, Thermo Fisher Scientific, Vantaa, Finland). All experiments were conducted in triplicate.

[9] = system: Staphylococcus aureus ATCC 33591; assay type: cell-based; details: ATCC 33591, 24 h
Protocol: as §3, §4

[10] = system: Staphylococcus aureus ATCC 33591; details: ATCC 33591, 24 h
Protocol: as §1, with “[…],” for “Poland) for bacteria or RPMI-1640 (Sigma-Aldrich,”, “Cell densities for all assays were adjusted spectrophotometrically (Multiskan GO Microplate Spectrophotometer, Thermo Fisher Scientific, Vantaa, Finland) at 600 and 530 nm for bacteria and fungi, respectively.” left out
as §2

SMILES | MIC Pseudomonas aeruginosa ATCC 9027 [1] [µg/mL] | MIC Acinetobacter baumannii ATCC BAA 1605 [2] | MIC Klebsiella aerogenes ATCC 13048 [3] | MIC Enterococcus faecium ATCC 700221 [4] [µg/mL] | MIC Staphylococcus aureus ATCC 25923 [5] [µg/mL] | MIC Klebsiella pneumoniae ATCC 700603 [6] | Adjusted Retention Time [7] [min] | Difference in retention time calculated as tR’C—tR’B [7] [min] | MBEC Acinetobacter baumannii ATCC BAA 1605 [8] [µg/mL] | MBEC Staphylococcus aureus ATCC 33591 [9] [µg/mL] | MIC Staphylococcus aureus ATCC 33591 [10] [µg/mL]
CCCCCCCC(=O)N[C@@H](CCCNC(=N)N)C(=O)N[C@@H](CCCNC(=N)N)C(=O)N[C@@H](CSSC[C@H](NC(=O)[C@H](CCCNC(=N)N)NC(=O)[C@H](CCCNC(=N)N)NC(=O)CCCCCCC)C(N)=O)C(N)=O [Compound C1] (I: Octanoyl-Arg-Arg-Cys-NH2 / II: Octanoyl-Arg-Arg-Cys-NH2; disulfide I:3-II:3) | 64 (≈ 57.4 µM) | 256 (−/−) µg/mL | >256 (−/−) µg/mL | 32 (≈ 28.7 µM) | 8 (≈ 7.17 µM) | >256 (−/−) µg/mL | 8.26 | 0.15 | 512 | 32 | 16 (≈ 14.3 µM)
CCCCCCCCCCCCCC(=O)N[C@@H](CCCNC(=N)N)C(=O)N[C@@H](CCCNC(=N)N)C(N)=O [Compound A4, C14-RR-NH2] (Myristoyl-Arg-Arg-NH2) | 32 (≈ 59.3 µM) | 64 µg/mL (≈ 119 µM) | 256 (−/−) µg/mL | 8 (≈ 14.8 µM) | 8 (≈ 14.8 µM) | 256 (−/−) µg/mL | 16.31 | – | 256 | 8 | 8 (≈ 14.8 µM)
CCCCCCCCCCCC(=O)N[C@@H](CCCNC(=N)N)C(=O)N[C@@H](CCCNC(=N)N)C(=O)N[C@@H](CSSC[C@H](NC(=O)[C@H](CCCNC(=N)N)NC(=O)[C@H](CCCNC(=N)N)NC(=O)CCCCCCCCCCC)C(N)=O)C(N)=O [Compound C3] (I: Lauroyl-Arg-Arg-Cys-NH2 / II: Lauroyl-Arg-Arg-Cys-NH2; disulfide I:3-II:3) | 8 (≈ 6.52 µM) | 64 µg/mL (≈ 52.1 µM) | 32 µg/mL (≈ 26.1 µM) | 2 (≈ 1.63 µM) | 4 (≈ 3.26 µM) | >256 (−/−) µg/mL | 19.24 | 0.15 | 512 | 32 | 4 (≈ 3.26 µM)
CCCCCCCCCCCCCC(=O)N[C@@H](CCCNC(=N)N)C(=O)N[C@@H](CCCNC(=N)N)C(=O)NCCCC[C@H](NC(=O)[C@H](CCCNC(=N)N)NC(=O)[C@H](CCCNC(=N)N)NC(=O)CCCCCCCCCCCCC)C(N)=O [Compound B4] (Myristoyl-Arg-Arg-Lys([Arg-Arg-Myristoyl])-NH2) | 32 (≈ 26.9 µM) | 64 µg/mL (≈ 53.8 µM) | 32 µg/mL (≈ 26.9 µM) | 8 (≈ 6.72 µM) | 64 (≈ 53.8 µM) | 32 µg/mL (≈ 26.9 µM) | 25.33 | – | 512 | 128 | 64 (≈ 53.8 µM)
CCCCCCC(CCCC)C(=O)N[C@@H](CCCNC(=N)N)C(=O)N[C@@H](CCCNC(=N)N)C(=O)NCCCC[C@H](NC(=O)[C@H](CCCNC(=N)N)NC(=O)[C@H](CCCNC(=N)N)NC(=O)C(CCCC)CCCCCC)C(N)=O (some centres unmarked) [Compound B7] | 4 (≈ 3.53 µM) | 32 µg/mL (≈ 28.2 µM) | 16 µg/mL (≈ 14.1 µM) | 1 (≈ 0.881 µM) | 1 (≈ 0.881 µM) | 32 µg/mL (≈ 28.2 µM) | 14.68 | – | 64 | 4 | 0.5 (≈ 0.441 µM)
CCCCCCCCCCCC(=O)N[C@@H](CCCNC(=N)N)C(=O)N[C@@H](CCCNC(=N)N)C(=O)NCCCC[C@H](NC(=O)[C@H](CCCNC(=N)N)NC(=O)[C@H](CCCNC(=N)N)NC(=O)CCCCCCCCCCC)C(N)=O [Compound B3] (Lauroyl-Arg-Arg-Lys([Arg-Arg-Lauroyl])-NH2) | 4 (≈ 3.53 µM) | 8 µg/mL (≈ 7.05 µM) | 32 µg/mL (≈ 28.2 µM) | 2 (≈ 1.76 µM) | 4 (≈ 3.53 µM) | 64 µg/mL (≈ 56.4 µM) | 19.09 | – | 256 | 16 | 2 (≈ 1.76 µM)
